From patent US6576620B2, “Method of identifying partial adenosine A1 receptor agonists” (CV Therapeutics, Inc., priority 1999, dated 2003) come the findings set out here.

For one experiment, the system named is Adenosine A1 receptor. The experiment is described as follows: A1-agonist stimulated [35S]GTPγS binding to G proteins. The conditions noted are these: Table 1, compounds of Example 2; normalized to the full agonist CPA. It counts as biochemical. The procedure: At the end of the incubation, each suspension was filtered and the retained radioactivity determined as described above.
Consider “2-{6-[((3R)oxolan-3-yl)amino]purin-9-yl}(4S,2R,3R,5R)-5-{[cyclopentyloxythioxomethyl)amino]methyl}oxolane-3,4-diol [Compound 72 of Example 2]”, for which the GTPγS came to 93%.

Take `CC(C)NC(=O)OC[C@H]1O[C@@H](n2cnc3c(N[C@@H]4CCOC4)ncnc32)[C@H](O)[C@@H]1O` [Compound 32 of Example 2, {(5-{6-[((3R)oxolan-3-yl)amino]purin-9-yl}(3S,2R,4R,5R)-3,4-dihydroxyoxolan-2-yl)methoxy]-N-(methylethyl)carboxamide]: the GTPγS is 91%.

As to `COC(=O)C1CCCC1NC(=O)OC[C@H]1O[C@@H](n2cnc3c(N[C@@H]4CCOC4)ncnc32)[C@H](O)[C@@H]1O` (some centres unmarked) [Compound 34 of Example 2], the GTPγS is listed as 17%.

As for `CCOC(=O)[C@H]1C2C=CC(C2)[C@H]1NC(=O)OC[C@H]1O[C@@H](n2cnc3c(N[C@@H]4CCOC4)ncnc32)[C@H](O)[C@@H]1O` (some centres unmarked) [Compound 35 of Example 2], the GTPγS amounted to 52%.

Take `CCOC(=O)[C@H]1C2CCC(C2)[C@H]1NC(=O)OC[C@H]1O[C@@H](n2cnc3c(N[C@@H]4CCOC4)ncnc32)[C@H](O)[C@@H]1O` (some centres unmarked) [Compound 36 of Example 2]: the GTPγS was 41%.

Take `O=C(N[C@@H]1CCC[C@H]1OCc1ccccc1)OC[C@H]1O[C@@H](n2cnc3c(N[C@@H]4CCOC4)ncnc32)[C@H](O)[C@@H]1O` [Compound 37 of Example 2, {(5-{6 [((3R)oxolan-3-yl)amino]purin-9-yl}(3S,2R,4R,5R)-3,4-dihydroxyoxolan-2-yl)methoxy]-N-[(1R,2R)-2-(phenylmethoxy)cyclopentyl]carboxamide]: the GTPγS worked out at 30%.

For `O=C(N[C@H]1CCC[C@@H]1OCc1ccccc1)OC[C@H]1O[C@@H](n2cnc3c(N[C@@H]4CCOC4)ncnc32)[C@H](O)[C@@H]1O` [Compound 38 of Example 2, {(5-{6[((3R)oxolan-3-yl)amino]purin-9-yl}(3S,2R,4R,5R)-3,4-dihydroxyoxolan-2-yl)methoxy]-N-[(1 S,2S)-2-(phenylmethoxy)cyclopentyl]carboxamide], the GTPγS is 1%.

Turning to `O=C(NC1CCC1)OC[C@H]1O[C@@H](n2cnc3c(N[C@@H]4CCOC4)ncnc32)[C@H](O)[C@@H]1O` [Compound 39 of Example 2, [(5-{6-[((3R)oxolan-3-yl)amino}purin-9-yl}(3S,2R,4R,5R)-3,4-dihydroxyoxolan-2-yl)methoxy]-N-cyclobutylcarboxamide], the GTPγS is recorded as 67%.

Consider `O=C(NC1CC1c1ccccc1)OC[C@H]1O[C@@H](n2cnc3c(N[C@@H]4CCOC4)ncnc32)[C@H](O)[C@@H]1O` (some centres unmarked) [Compound 40 of Example 2], for which the GTPγS is recorded as −6%.

In the case of `C=CCNC(=O)OC[C@H]1O[C@@H](n2cnc3c(N[C@@H]4CCOC4)ncnc32)[C@H](O)[C@@H]1O` [Compound 41 of Example 2, [(5-{6-[((3R)oxolan-3-yl)amino]purin-9-yl}(3S,2R,4R,5R)-3,4-dihydroxyoxolan-2-yl)methoxy]-N-prop-2-enylcarboxamide], the GTPγS turned out to be 48%.

With `CCOC(=O)CCNC(=O)OC[C@H]1O[C@@H](n2cnc3c(N[C@@H]4CCOC4)ncnc32)[C@H](O)[C@@H]1O` [Compound 42 of Example 2, Ethyl 3-{[(5-{6-[((3R)oxolan-3-yl)amino]purin-9-yl}(3S, 2R,4R,5R)-3,4-dihydroxyoxolane-2-yl)methoxy}carbonylamino}propanoate], the GTPγS worked out at 47%.

Regarding `COC(=O)CNC(=O)OC[C@H]1O[C@@H](n2cnc3c(N[C@@H]4CCOC4)ncnc32)[C@H](O)[C@@H]1O` [Compound 43 of Example 2, Methyl 2-{[(5-{6-[((3R)oxolan-3-yl)amino]purin-9-yl}(3S, 2R,4R,5R)dihydroxyoxolane-2-yl)methoxy}carbonylamino}acetate], the GTPγS is 53%.

`CCCCNC(=S)OC[C@H]1O[C@@H](n2cnc3c(N[C@@H]4CCOC4)ncnc32)[C@H](O)[C@@H]1O` [Compound 48 of Example 2, 2-{6-[((3R)oxolan-3-yl)amino]purin-9-yl}(4S,2R,3R,5R)-5-{[(butylamino)thioxomethoxy]methyl}oxolane-3,4-diol]: the GTPγS is 70%.

Turning to `O[C@@H]1[C@H](O)[C@@H](COC(=S)N2CCCCC2)O[C@H]1n1cnc2c(N[C@@H]3CCOC3)ncnc21` [Compound 50 of Example 2, 2-{6-[((3R)oxolan-3-yl)amino]purin-9-yl}(4S,2R,3R,5R)-5-[(piperidylthioxomethoxy)methyl]oxolane-3,4-diol], the GTPγS was 88%.

`O[C@@H]1[C@H](O)[C@@H](COC(=S)N2CCCC2)O[C@H]1n1cnc2c(N[C@@H]3CCOC3)ncnc21` [Compound 52 of Example 2, 2-{6-[((3R)oxolan-3-yl)amino]purin-9-yl}(4S,2R,3R,5R)-5-[(pyrrolidinylthioxomethoxy)methyl]oxolane-3,4-diol]: the GTPγS is reported as 77%.

For `CN(C)C(=S)OC[C@H]1O[C@@H](n2cnc3c(N[C@@H]4CCOC4)ncnc32)[C@H](O)[C@@H]1O` [Compound 53 of Example 2, 2-{6-[((3R)oxolan-3-yl)amino]purin-9-yl}(4S,2R,3R,5R)-5-{[(dimethylamino)thioxomethoxy]methyl}oxolane-3,4-diol], the GTPγS is given as 85%.

For the compound `O[C@@H]1[C@H](O)[C@@H](COC(=S)NCc2ccccc2)O[C@H]1n1cnc2c(N[C@@H]3CCOC3)ncnc21` [Compound 54 of Example 2, 2-{6-[((3R)oxolan-3-yl)amino]purin-9-yl}(4S,2R,3R,5R)-5-({[benzylamino]thioxomethoxy}methyl)oxolane-3,4-diol], the GTPγS turned out to be 93%.

Take `O[C@@H]1[C@H](O)[C@@H](COC(=S)NC2CCCCC2)O[C@H]1n1cnc2c(N[C@@H]3CCOC3)ncnc21` [Compound 55 of Example 2, 2-{6-[((3R)oxolan-3-yl)amino]purin-9-yl}(4S,2R,3R,5R)-5-({[cyclohexylamino]thioxomethoxy}methyl)oxolane-3,4-diol]: the GTPγS worked out at 82%.

Turning to `O[C@@H]1[C@H](O)[C@@H](COC(=S)N[C@H]2CCC[C@@H]2OCc2ccccc2)O[C@H]1n1cnc2c(N[C@@H]3CCOC3)ncnc21` [Compound 56 of Example 2, 2-{6-[((3R)oxolan-3-yl)amino]purin-9-yl}(4S,2R,3R,5R)-5-[({[(1S,2S)-2-(phenylmethoxy)cyclopentyl]amino}thioxomethoxy)methyl]oxolane-3,4-diol], the GTPγS came out at 52%.

With `O[C@@H]1[C@H](O)[C@@H](COC(=S)N[C@@H]2CCC[C@H]2OCc2ccccc2)O[C@H]1n1cnc2c(N[C@@H]3CCOC3)ncnc21` [Compound 57 of Example 2, 2-{6-[((3R)oxolan-3-yl)amino]purin-9-yl}(4S,2R,3R,5R)-5-[(([(1R,2R)-2-(phenylmethoxy)cyclopentyl]amino}thioxomethoxy)methyl]oxolane-3,4-diol], the GTPγS came to 67%.

For the compound `O[C@@H]1[C@H](O)[C@@H](COC(=S)NC2CCC2)O[C@H]1n1cnc2c(NC3CCOC3)ncnc21` (stereo partly drawn) [Compound 58 of Example 2, 2-{6-[((3)oxolan-3-yl)amino]purin-9-yl}(4S,2R,3R,5R)-5{[(cyclobutylamino)thioxomethoxy]methyl}oxolane-3,4-diol], the GTPγS came to 79%.

For `O[C@@H]1[C@H](O)[C@@H](COC(=S)NC2CC2)O[C@H]1n1cnc2c(N[C@@H]3CCOC3)ncnc21` [Compound 59 of Example 2, 2-{6-[((3R)oxolan-3-yl)amino]purin-9-yl}(4S,2R,3R,5R)-5-{[(cyclopropylamino)thioxomethoxy]methyl}oxolane-3,4-diol], the GTPγS is 82%.

Turning to `C=CCNC(=S)OC[C@H]1O[C@@H](n2cnc3c(N[C@@H]4CCOC4)ncnc32)[C@H](O)[C@@H]1O` [Compound 60 of Example 2, 2-{6-[((3R)oxolan-3-yl)amino]purin-9-yl}(4S,2R,3R,5R)-5-{[(prop-2-enylamino)thioxomethoxy]methyl}oxolane-3,4-diol], the GTPγS is 77%.

For `O=C(N[C@H]1CCC[C@@H]1O)OC[C@H]1O[C@@H](n2cnc3c(N[C@@H]4CCOC4)ncnc32)[C@H](O)[C@@H]1O` [Compound 61 of Example 2], the GTPγS was found to be 59%.

In the case of `O=C(N[C@@H]1CCC[C@H]1O)OC[C@H]1O[C@@H](n2cnc3c(N[C@@H]4CCOC4)ncnc32)[C@H](O)[C@@H]1O` [Compound 62 of Example 2, {(5-{6[((3R)oxolan-3-yl)amino]purin-9-yl}(3S,2R,4R,5R)-3,4-dihydroxyoxolan-2-yl)methoxy]-N-((1R,2R)-2-hydroxycyclopentyl)carboxamide], the GTPγS is recorded as 42%.

Still in this experiment, the particulars now being: Table 2, compounds of Example 3; normalized to the full agonist CPA.
On to `CCNc1nc2c(N[C@@H]3CCOC3)ncnc2n1[C@@H]1O[C@H](CO)[C@@H](O)[C@H]1O` [Compound 5 of Example 3, 2-{6-[((3R)oxolan-3-yl)amino]-8-(ethylamino)purin-9-yl}(4S,2R,3R,5R)-5-(hydroxymethyl)oxolane-3,4-diol], for which the GTPγS was determined as 89%.

The same experiment, now with this note: Table 3, compounds of Example 4; normalized to the full agonist CPA.
In the case of `Cc1ccc(SC[C@H]2O[C@@H](n3cnc4c(N[C@@H]5CCOC5)ncnc43)[C@H](O)[C@@H]2O)cc1` [Compound 15 of Example 4, 2-{6-[((3R)oxolan-3-yl)amino]purin-9-yl}(4S,5S,2R,3R)-5-[(4-methylphenylthio)methyl]oxolane-3,4-diol], the GTPγS turned out to be 48%.

In the case of `O[C@@H]1[C@H](O)[C@@H](CSc2ccc(C(F)(F)F)cc2)O[C@H]1n1cnc2c(N[C@@H]3CCOC3)ncnc21` [Compound 16 of Example 4, 2-{6-[((3R)oxolan-3-yl)amino]purin-9-yl}(4S,5S,2R,3R)-5-[(4-(trifluoromethyl)phenylthio)methyl]oxolane-3,4-diol], the GTPγS was 31%.

On to `COc1ccccc1SC[C@H]1O[C@@H](n2cnc3c(N[C@@H]4CCOC4)ncnc32)[C@H](O)[C@@H]1O` [Compound 17 of Example 4, 2-{6-[((3R)oxolan-3-yl)amino]purin-9-yl}(4S,5S,2R,3R)-5-[(2-Methoxyphenylthio)methyl]oxolane-3,4-diol], for which the GTPγS worked out at 52%.
